Measured values as given in the NIST ThermoML archive (doi:10.1016/j.fluid.2017.09.014).

Assay: xn = mol fraction of the nth substance listed
Settings: Vibrating tube method

O=S=O [sulfur dioxide] + O=C=O
Settings	mass density [kg/m3]
283.32 K, 5506 kPa, Liquid, x2 = 0.9503	916.4
283.32 K, 6002 kPa, Liquid, x2 = 0.9503	920.8
283.32 K, 6507 kPa, Liquid, x2 = 0.9503	925.6
283.32 K, 7000 kPa, Liquid, x2 = 0.9503	929.5
283.32 K, 7506 kPa, Liquid, x2 = 0.9503	934.7
283.32 K, 8008 kPa, Liquid, x2 = 0.9503	938.7
283.32 K, 9510 kPa, Liquid, x2 = 0.9503	949.7
283.32 K, 9995 kPa, Liquid, x2 = 0.9503	953.3
283.32 K, 10507 kPa, Liquid, x2 = 0.9503	956.6
283.32 K, 11007 kPa, Liquid, x2 = 0.9503	959.9
283.32 K, 12009 kPa, Liquid, x2 = 0.9503	966.2
283.32 K, 12514 kPa, Liquid, x2 = 0.9503	969.7
283.32 K, 13000 kPa, Liquid, x2 = 0.9503	972.6
283.32 K, 13536 kPa, Liquid, x2 = 0.9503	975.3
283.32 K, 14496 kPa, Liquid, x2 = 0.9503	980.8
283.32 K, 15011 kPa, Liquid, x2 = 0.9503	984.1
283.32 K, 15505 kPa, Liquid, x2 = 0.9503	986.8
283.32 K, 16044 kPa, Liquid, x2 = 0.9503	989.5
283.32 K, 16561 kPa, Liquid, x2 = 0.9503	992.4
283.32 K, 17047 kPa, Liquid, x2 = 0.9503	994.7
283.32 K, 17551 kPa, Liquid, x2 = 0.9503	996.8
283.32 K, 18520 kPa, Liquid, x2 = 0.9503	1001.7
283.32 K, 19016 kPa, Liquid, x2 = 0.9503	1004.1
283.32 K, 19496 kPa, Liquid, x2 = 0.9503	1006.2
283.32 K, 20038 kPa, Liquid, x2 = 0.9503	1008.7
283.32 K, 20507 kPa, Liquid, x2 = 0.9503	1011
283.32 K, 21035 kPa, Liquid, x2 = 0.9503	1013.2
283.32 K, 21504 kPa, Liquid, x2 = 0.9503	1015.3
283.32 K, 22046 kPa, Liquid, x2 = 0.9503	1017.6
283.32 K, 22565 kPa, Liquid, x2 = 0.9503	1019.8
283.32 K, 23052 kPa, Liquid, x2 = 0.9503	1021.8
283.32 K, 23509 kPa, Liquid, x2 = 0.9503	1023.3
283.32 K, 24535 kPa, Liquid, x2 = 0.9503	1027.4
283.32 K, 25025 kPa, Liquid, x2 = 0.9503	1029.4
283.32 K, 25509 kPa, Liquid, x2 = 0.9503	1031.3
283.32 K, 26038 kPa, Liquid, x2 = 0.9503	1033.5
283.32 K, 26503 kPa, Liquid, x2 = 0.9503	1034.9
283.32 K, 27023 kPa, Liquid, x2 = 0.9503	1037
283.32 K, 28043 kPa, Liquid, x2 = 0.9503	1040.7
283.32 K, 28527 kPa, Liquid, x2 = 0.9503	1042.4
283.32 K, 29081 kPa, Liquid, x2 = 0.9503	1044.1
283.32 K, 29470 kPa, Liquid, x2 = 0.9503	1045.7
283.32 K, 30008 kPa, Liquid, x2 = 0.9503	1047.3
283.32 K, 30506 kPa, Liquid, x2 = 0.9503	1049.6
283.32 K, 31007 kPa, Liquid, x2 = 0.9503	1050.9
283.32 K, 31500 kPa, Liquid, x2 = 0.9503	1052.8
283.32 K, 32033 kPa, Liquid, x2 = 0.9503	1054.6
283.32 K, 32516 kPa, Liquid, x2 = 0.9503	1056.2
283.32 K, 33032 kPa, Liquid, x2 = 0.9503	1057.9
283.32 K, 33527 kPa, Liquid, x2 = 0.9503	1059.6
283.32 K, 33995 kPa, Liquid, x2 = 0.9503	1060.8
283.32 K, 34989 kPa, Liquid, x2 = 0.9503	1064.3
283.32 K, 37026 kPa, Liquid, x2 = 0.9503	1070.5
283.32 K, 38461 kPa, Liquid, x2 = 0.9503	1074.6
283.32 K, 39056 kPa, Liquid, x2 = 0.9503	1076.1
283.32 K, 39558 kPa, Liquid, x2 = 0.9503	1077.4
283.32 K, 40729 kPa, Liquid, x2 = 0.9503	1080.4
283.33 K, 4307 kPa, Liquid, x2 = 0.9503	902.3
283.33 K, 4499 kPa, Liquid, x2 = 0.9503	904.4
283.33 K, 8543 kPa, Liquid, x2 = 0.9503	942.8
283.33 K, 9019 kPa, Liquid, x2 = 0.9503	946.2
283.33 K, 11512 kPa, Liquid, x2 = 0.9503	963
283.33 K, 14003 kPa, Liquid, x2 = 0.9503	978.2
283.33 K, 18078 kPa, Liquid, x2 = 0.9503	999.5
283.33 K, 24074 kPa, Liquid, x2 = 0.9503	1025.3
283.33 K, 40145 kPa, Liquid, x2 = 0.9503	1078.8
283.33 K, 40601 kPa, Liquid, x2 = 0.9503	1080.3
283.33 K, 40700 kPa, Liquid, x2 = 0.9503	1080.6
297.4 K, 4803 kPa, Gas, x2 = 0.9478	134.4
297.41 K, 100 kPa, Gas, x2 = 0.9478	1.8
297.41 K, 200 kPa, Gas, x2 = 0.9478	3.6
297.41 K, 2012 kPa, Gas, x2 = 0.9478	42.1
297.41 K, 2215 kPa, Gas, x2 = 0.9478	47.2
297.42 K, 51 kPa, Gas, x2 = 0.9478	1
297.42 K, 397 kPa, Gas, x2 = 0.9478	7.5
297.42 K, 502 kPa, Gas, x2 = 0.9478	9.4
297.42 K, 1817 kPa, Gas, x2 = 0.9478	37.6
297.42 K, 2421 kPa, Gas, x2 = 0.9478	53
297.42 K, 2588 kPa, Gas, x2 = 0.9478	57
297.42 K, 2854 kPa, Gas, x2 = 0.9478	64.1
297.42 K, 3638 kPa, Gas, x2 = 0.9478	87.4
297.42 K, 3822 kPa, Gas, x2 = 0.9478	93.7
297.42 K, 3996 kPa, Gas, x2 = 0.9478	99.9
297.42 K, 4401 kPa, Gas, x2 = 0.9478	115.6
297.42 K, 4507 kPa, Gas, x2 = 0.9478	120.1
297.42 K, 4600 kPa, Gas, x2 = 0.9478	124.4
297.42 K, 4703 kPa, Gas, x2 = 0.9478	129.2
297.43 K, 3223 kPa, Gas, x2 = 0.9478	74.6
297.43 K, 3396 kPa, Gas, x2 = 0.9478	79.8
297.43 K, 4206 kPa, Gas, x2 = 0.9478	107.7
297.44 K, 3064 kPa, Gas, x2 = 0.9478	70.1
298.09 K, 26076 kPa, Liquid, x2 = 0.9478	980
298.09 K, 26503 kPa, Liquid, x2 = 0.9478	982.1
298.1 K, 7001 kPa, Liquid, x2 = 0.9478	819.7
298.1 K, 9007 kPa, Liquid, x2 = 0.9478	854
298.1 K, 21016 kPa, Liquid, x2 = 0.9478	954.5
298.1 K, 21994 kPa, Liquid, x2 = 0.9478	959.8
298.1 K, 22537 kPa, Liquid, x2 = 0.9478	962.6
298.1 K, 23522 kPa, Liquid, x2 = 0.9478	967.7
298.1 K, 24029 kPa, Liquid, x2 = 0.9478	970.2
298.1 K, 24505 kPa, Liquid, x2 = 0.9478	972.6
298.1 K, 25050 kPa, Liquid, x2 = 0.9478	975.1
298.1 K, 25593 kPa, Liquid, x2 = 0.9478	977.9
298.1 K, 27025 kPa, Liquid, x2 = 0.9478	984.3
298.1 K, 27508 kPa, Liquid, x2 = 0.9478	986.6
298.1 K, 27973 kPa, Liquid, x2 = 0.9478	988.6
298.1 K, 28400 kPa, Liquid, x2 = 0.9478	990.6
298.1 K, 32016 kPa, Liquid, x2 = 0.9478	1004.6
298.1 K, 32518 kPa, Liquid, x2 = 0.9478	1006.5
298.1 K, 33068 kPa, Liquid, x2 = 0.9478	1008.6
298.1 K, 33435 kPa, Liquid, x2 = 0.9478	1009.8
